Test results: patent publication US20220226480A1, “LIPID CONJUGATE PREPARED FROM SCAFFOLD MOIETY” (Integrated Nanotherapeutics Inc., priority 2019, published 2022)

What was measured:
[1] = Particle size and polydispersity of LNP containing pro-drug (dynamic light scattering); assay type: physicochemical; set-up: Size of LNP: unit not given here; settings: for Particle Diameter (nm) / Polydispersity index (PDI): LNP containing 10 mol % conjugate, primary PC-lipid DMPC
Method: (§1) LNPs were prepared by dissolving 1,2-Distearoyl-sn-glycero-3-phosphocholine (DSPC) or 1,2-dimyristoyl-sn-glycero-3-phosphocholine (DMPC), cholesterol and 1,2-Distearoyl-sn-glycero-3-phosphoethanolamine-Poly(ethylene glycol) (PEG-DSPE) in ethanol. DSPC, DMPC and PEG-DSPE were purchased from Avanti Polar Lipids (Alabaster, Ala.), and cholesterol was obtained from Sigma (St Louis, Mo.).
(§2) Drug-lipid-conjugates INT-D034, INT-D035, INT-D045, INT-D046, INT-D047, INT-D048, INT-D049, INT-D050, INT-D051, INT-D053, INT-D060, INT-D061, INT-D062, INT-D063, INT-D083, INT-D085, INT-D086, INT-D088 and INT-D089 (see FIG. 3 and Example 7 for structures) were dissolved in isopropanol or THF. LNP were prepared by rapidly mixing DSPC or DMPC, cholesterol, drug-lipid conjugate, and PEG-DSPE (in molar ratio of 49/40/10/1) with phosphate-buffered saline (PBS) using a cross-junction mixer. Formulations were dialyzed against PBS to remove residual ethanol. In formulation$ with more than 10 mol % drug-lipid conjugates, the amount of phospholipid or cholesterol was reduced accordingly.
(§3) The physiochemical properties of the LNPs prepared as described above were subsequently characterized. Particle size was determined by dynamic light scattering using a Malvern Zetasizer Nano ZS (Malvern, UK) following buffer exchange into phosphate-buffered saline. Number-weighted size and distribution date was used. Lipid concentrations were determined by measuring total cholesterol using the Cholesterol E enzymatic assay kit from Wako Chemicals USA (Richmond, Va.). The morphology of LNP formulations containing LD-DEX was analyzed by cryogenic-transmission electron microscopy (cryoTEM).

[2] = Encapsulation efficiency / incorporation of pro-drug in LNP; assay type: physicochemical; settings: for % Entrapment: LNP formulations containing pro-drugs (10 mol %, FIG. 6A); for Encapsulation Efficiency (%): LNP containing 10 mol % conjugate, primary PC-lipid DMPC
Method: as §1, §2, §3

[3] = Dissociation of pro-drugs from LNP after incubation in human plasma (size exclusion chromatography, UPLC); assay type: in vitro ADME; settings: 10 mol % in LNP, 2 hours, 37° C. (FIG. 6A)
From the text: The release of ricinoleyl-dexamethasone conjugates from LNP was examined using an assay involving human plasma, which contains lipoproteins as a lipid sink for lipid exchanges to occur. The plasma lacked active esterases that may digest the ricinoleyl-dexamethasone conjugates, which would in turn prevent the detection and monitoring of intact conjugates.
LNP formulations containing 10-99 mol % INT-D034, INT-D035, INT-D045, INT-D046, INT-0047, INT-D048 or INT-D049, INT-D050, INT-D051, INT-D053, INT-D083, INT-D085, INT-D086 or INT-D089 (see FIG. 3 and Example 7 for structures) were subjected to incubation in human plasma for 0, 2 or 24 hours at 37° C. at 1.2 mM total lipid. Size exclusion chromatography was performed to separate LNP from lipoproteins (1.5×27 cm Sepharose […] size exclusion column). Thirty fractions of 2 mL were collected and three volumes of isopropanol/methanol (1:1 v/v) were added to each fraction.
Drug-lipid conjugates were quantified by ultra high pressure liquid chromatography (UPLC) using a Water® Acquity™ UPLC system equipped with a photodiode array detector (PDA); Empower™ data acquisition software version 2.0 was used (Waters, USA). […] The method was run over 6 minutes with a column temperature of 55° C. and the analyte was measured by monitoring the PDA detector at a wavelength of 239 nm.

[4] = tested on: CD4+ T cells; assay: Mixed lymphocyte reaction (MLR) assay, BMDCs with allogeneic CD4+ T cells; assay type: cell-based, mice; settings: LNP containing 10-99 mol % conjugate; BMDCs treated 48 hours, LPS 24 hours; 5:1 or 10:1 T-to-BMDC ratio; 3 days; flow cytometry
Method: Bone marrow derived dendritic cells (BMDCs) from C57Bl/6 male mice were first treated with LNP containing various mol % of the dexamethasone or calcitriol conjugates for 48 hours and then activated by incubation with LIPS for 24 hours. They were then harvested and mixed with CD4+ T cells isolated from Balb/cJ male mice (Jackson Laboratories) at 5:1 or 10:1 T-to-BMDC ratio.
Dexamethasone and calcitriol can tolerize antigen presenting cells (APCs). […] Bone marrow derived dendritic cells (BMDCs) from C57BI/6 male mice (Charles River) were first treated with LNP containing various mol % of dexamethasone or calcitriol conjugates for 48 hours and then activated by incubation with LPS for 24 hours. They were then harvested and mixed with CD4+ T cells isolated from Balb/cl male mice (Jackson Laboratories) at 5:1 or 10:1 T-to-BMDC ratio. The levels of T cells proliferation after 3 days were quantified using flow cytometry.

[5] = LNP formulations containing pro-drugs (10 mol %, FIG. 6A)
[6] = LNP, pro-drug concentration 10 %
[7] = LNP, pro-drug concentration 20 %
[8] = LNP, pro-drug concentration 60 %
[9] = LNP, pro-drug concentration 80 %
[10] = LNP, pro-drug concentration 99 %
[11] = LNP, pro-drug concentration 90 %
[12] = LNP, pro-drug concentration 98 %

For CCCCC/C=C\C/C=C\CCCCCCCC(=O)OC(CCCCCCCC)C(CCCCCCCC(=O)OCC(=O)[C@@]1(O)[C@H](C)C[C@H]2[C@@H]3CCC4=CC(=O)C=C[C@]4(C)[C@@]3(F)[C@@H](O)C[C@@]21C)OC(=O)CCCCCCC/C=C\C/C=C\CCCCC (stereo partly drawn) [INT-D086, 1-(2-((8S,9R,10S,11S,13S,14S,16R,17R)-9-Fluoro-11,17-dihydroxy-10,13,16-trimethyl-3-oxo-6,7,8,9,10,11,12,13,14,15,16,17-dodecahydro-3H-cyclopenta[a]phenanthren-17-yl)-2-oxoethoxy)-1-oxooctadecane-9,10-diyl (9Z,9′Z,12Z,12′4)-bis(octadeca-9,12-dienoate)], the PdI [1, 5] was 0.08, the “Size of LNP” value [1, 5] was 38 and the PdI [1, 6] was 0.082. The “Size (nm)” value [1, 6] was 38 nm, the PdI [1, 7] was 0.117 and the “Size (nm)” value [1, 7] was 35 nm. The PdI [1, 8] was 0.036, the “Size (nm)” value [1, 8] was 82 nm and the PdI [1, 9] was 0.028. The “Size (nm)” value [1, 9] was 165 nm, the PdI [1, 10] was 0.026 and the “Size (nm)” value [1, 10] was 160 nm. The “% Entrapment” value [2] was 92% and the “pro-drug remained in LNP” value [3] was “over 90%”.

For CCCCCC[C@H](C/C=C\CCCCCCCCOC(=O)CCC(=O)OCC(=O)[C@@]1(O)[C@H](C)C[C@H]2[C@@H]3CCC4=CC(=O)C=C[C@]4(C)[C@@]3(F)[C@@H](O)C[C@@]21C)OC(C)=O [INT-D047, (R,Z)-12-acetoxyoctadec-9-en-1-yl (2-((8S,9R,10S,11S,13S,14S,16R,17R)-9-fluoro-11,17-dihydroxy-10,13,16-trimethyl-3-oxo-6,7,8,9,10,11,12,13,14,15,16,17-dodecahydro-3H-cyclopenta[a]phenanthren-17-yl)-2-oxoethyl) succinate], the “Particle Diameter (nm)” value [1] was 68 nm, the “Polydispersity index (PDI)” value [1] was 0.02 and the PdI [1, 5] was 0.06. The “Size of LNP” value [1, 5] was 70, the “Encapsulation Efficiency (%)” value [2] was 100% and the “% Entrapment” value [2] was 100%. For the same compound, the “pro-drug remained in LNP” value [3] was ~40%.

For “(1R,3S,2)-3-hydroxy-5-(2-((1R,3aS,7aR,E)-1-((R)-6-hydroxy-6-methylheptan-2-yl)-7a-methyloctahydro-4H-inden-4-ylidene)ethylidene)-4-methylenecyclohexyl (R,Z)-12-acetoxyoctadec-9-enoate and (1S,5R,Z)-5-hydroxy-3-(2-((1R,3aS,7aR,E)-1-((R)-6-hydroxy-6-methylheptan-2-yl)-7a-methyloctahydro-4H-inden-4-ylidene)ethylidene)-2-methylenecyclohexyl(RA-12-acetoxyoctadec-9-enoate [INT-D053]”, the PdI [1, 6] was 0.081, the “Size (nm)” value [1, 6] was 54 nm and the PdI [1, 7] was 0.052. For the same compound, the “Size (nm)” value [1, 7] was 56 nm, the PdI [1, 9] was 0.029 and the “Size (nm)” value [1, 9] was 106 nm. For the same compound, the PdI [1, 10] was 0.018, the “Size (nm)” value [1, 10] was 98 nm and the “allogeneic T-cell proliferation” value [4] was “able to suppress allogeneic T-cell proliferation”.

In the case of CCCCC/C=C\C/C=C\CCCCCCCC(=O)O[C@@H](C/C=C\CCCCCCCCOC(=O)CCC(=O)OCC(=O)[C@@]1(O)[C@H](C)C[C@H]2[C@@H]3CCC4=CC(=O)C=C[C@]4(C)[C@@]3(F)[C@@H](O)C[C@@]21C)CCCCCC [INT-D045, 2-((8S,9R,10S,11S,13S,14S,16R,17R)-9-fluoro-11,17-dihydroxy-10,13,16-trimethyl-3-oxo-6,7,8,9,10,11,12,13,14,15,16,17-dodecahydro-3H-cyclopenta[a]phenanthren-17-yl)-2-oxoethyl ((R,Z)-12-(linoleoyloxy)octadec-9-en-1-yl) succinate], the “Particle Diameter (nm)” value [1] is reported as 68 nm, the “Polydispersity index (PDI)” value [1] is reported as 0.03 and the PdI [1, 5] is reported as 0.03. For the same compound, the “Size of LNP” value [1, 5] was 64, the PdI [1, 6] was 0.076 and the “Size (nm)” value [1, 6] was 46 nm. The PdI [1, 7] was 0.073, the “Size (nm)” value [1, 7] was 48 nm and the PdI [1, 9] was 0.033. For the same compound, the “Size (nm)” value [1, 9] was 69 nm, the PdI [1, 11] was 0.054 and the “Size (nm)” value [1, 11] was 74 nm. For the same compound, the PdI [1, 10] was 0.045, the “Size (nm)” value [1, 10] was 75 nm and the “Encapsulation Efficiency (%)” value [2] was 99%. The “% Entrapment” value [2] was 100% and the “allogeneic T-cell proliferation” value [4] was “able to suppress allogeneic T-cell proliferation”.

For CCCCCCCCCCCCCCCCCC(=O)O[C@@H](C/C=C\CCCCCCCCOC(=O)CCC(=O)OCC(=O)[C@@]1(O)[C@H](C)C[C@H]2[C@@H]3CCC4=CC(=O)C=C[C@]4(C)[C@@]3(F)[C@@H](O)C[C@@]21C)CCCCCC [INT-D050, 2-((8S,9R,10S,11S,13S,14S,16R,17R)-9-fluoro-11,17-dihydroxy-10,13,16-trimethyl-3-oxo-6,7,8,9,10,11,12,13,14,15,16,17-dodecahydro-3H-cyclopenta[a]phenanthren-17-yl)-2-oxoethyl ((R,Z)-12-(stearoyloxy)octadec-9-en-1-yl) succinate], the “Particle Diameter (nm)” value [1] was 61 nm, the “Polydispersity index (PDI)” value [1] was 0.04 and the PdI [1, 5] was 0.05. For the same compound, the “Size of LNP” value [1, 5] was 60, the PdI [1, 9] was 0.01 and the “Size (nm)” value [1, 9] was 101 nm. The PdI [1, 12] was 0.02, the “Size (nm)” value [1, 12] was 61 nm and the PdI [1, 10] was 0.01. The “Size (nm)” value [1, 10] was 105 nm, the “Encapsulation Efficiency (%)” value [2] was 97% and the “% Entrapment” value [2] was 90%.
